Measurements from paper PMC8512631, “Structural Basis for PPARs Activation by The Dual PPARα/γ Agonist Sanguinarine: A Unique Mode of Ligand Recognition” (Molecules, 2021).
No end group written: not given here. *: point of attachment. Biotin = O=C1N[C@H]2[C@H](CS[C@H]2CCCCC(=O)*)N1

T1: PPARδ (Homo sapiens, UniProt Q03181, H244A)
T1 construct: gene PPARD; full-length
T1 sequence (Q03181 1-441 H244A): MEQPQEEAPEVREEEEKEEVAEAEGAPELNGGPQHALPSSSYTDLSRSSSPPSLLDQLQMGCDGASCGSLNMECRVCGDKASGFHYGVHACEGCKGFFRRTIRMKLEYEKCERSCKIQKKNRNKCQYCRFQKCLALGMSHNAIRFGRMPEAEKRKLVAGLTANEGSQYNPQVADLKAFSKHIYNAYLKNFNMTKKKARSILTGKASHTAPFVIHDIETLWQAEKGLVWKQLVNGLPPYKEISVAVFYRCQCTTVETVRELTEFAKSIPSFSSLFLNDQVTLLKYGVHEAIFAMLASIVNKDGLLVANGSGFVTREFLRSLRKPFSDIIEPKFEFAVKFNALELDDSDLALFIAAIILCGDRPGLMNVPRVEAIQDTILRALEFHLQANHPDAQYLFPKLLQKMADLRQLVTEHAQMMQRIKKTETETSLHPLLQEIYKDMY

T2: PPARδ (Homo sapiens, UniProt Q03181, R248A)
T2 construct: gene PPARD; full-length
T2 sequence (Q03181 1-441 R248A): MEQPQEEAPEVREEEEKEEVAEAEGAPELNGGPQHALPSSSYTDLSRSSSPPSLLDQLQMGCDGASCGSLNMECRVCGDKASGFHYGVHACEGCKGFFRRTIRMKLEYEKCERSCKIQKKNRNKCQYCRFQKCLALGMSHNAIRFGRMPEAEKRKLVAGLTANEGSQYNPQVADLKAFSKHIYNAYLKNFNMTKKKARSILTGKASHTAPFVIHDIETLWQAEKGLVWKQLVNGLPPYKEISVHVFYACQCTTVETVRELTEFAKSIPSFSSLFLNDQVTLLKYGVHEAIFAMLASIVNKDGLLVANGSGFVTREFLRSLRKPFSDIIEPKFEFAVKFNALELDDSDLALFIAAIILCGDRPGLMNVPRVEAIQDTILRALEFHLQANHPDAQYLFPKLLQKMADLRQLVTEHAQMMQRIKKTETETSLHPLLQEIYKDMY

T3: human PPARα ligand-binding domain (residues 196-468) (human, UniProt Q07869-1 196-468)
T3 construct: Expressed from pET24a; The methods describe only this PPARα-LBD construct; also called PPARα–LBD; source: E. coli BL21 (DE3), purified (Ni HiTrap, gel filtration Superdex 200); not shown: His6, N-terminal, kept
T3 sequence (looked up): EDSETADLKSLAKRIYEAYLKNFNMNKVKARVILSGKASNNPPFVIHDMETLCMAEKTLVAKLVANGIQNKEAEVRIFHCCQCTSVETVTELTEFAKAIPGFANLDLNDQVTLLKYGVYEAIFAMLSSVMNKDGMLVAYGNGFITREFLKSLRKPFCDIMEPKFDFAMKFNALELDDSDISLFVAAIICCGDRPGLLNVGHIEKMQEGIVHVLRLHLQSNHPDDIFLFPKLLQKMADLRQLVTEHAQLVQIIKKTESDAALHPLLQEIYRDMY


Tests used:
PPARδ [1] = target: T1, PPARδ; assay: PPRE luciferase reporter in […] cells, […]; type: cell-based
PPARδ [2] = target: T2, PPARδ; assay: PPRE luciferase reporter in […] cells, […]; type: cell-based
PPARα = target: T4, PPARα (Homo sapiens, UniProt Q07869); assay: thermal shift assay of LBD with SRC1 peptide; GAL4 reporter at […]; type: binding
T4 construct: gene PPARA; LBD

[3] = target: T3, human PPARα ligand-binding domain …; assay: AlphaScreen or HTRF; approximately 20–40 nM PPAR LBDs on nickel chelate acceptor beads, 20 nM biotinylated co-factor peptides on streptavidin donor beads; 50 mM MOPS, 50 mM NaF, 0.05 mM CHAPS, 0.1 mg/mL BSA, pH 7.4; in response to 1 μM sanguinarine; details: both partners purified

T4 sequence (Q15788 2-1441 partner, one chain of several): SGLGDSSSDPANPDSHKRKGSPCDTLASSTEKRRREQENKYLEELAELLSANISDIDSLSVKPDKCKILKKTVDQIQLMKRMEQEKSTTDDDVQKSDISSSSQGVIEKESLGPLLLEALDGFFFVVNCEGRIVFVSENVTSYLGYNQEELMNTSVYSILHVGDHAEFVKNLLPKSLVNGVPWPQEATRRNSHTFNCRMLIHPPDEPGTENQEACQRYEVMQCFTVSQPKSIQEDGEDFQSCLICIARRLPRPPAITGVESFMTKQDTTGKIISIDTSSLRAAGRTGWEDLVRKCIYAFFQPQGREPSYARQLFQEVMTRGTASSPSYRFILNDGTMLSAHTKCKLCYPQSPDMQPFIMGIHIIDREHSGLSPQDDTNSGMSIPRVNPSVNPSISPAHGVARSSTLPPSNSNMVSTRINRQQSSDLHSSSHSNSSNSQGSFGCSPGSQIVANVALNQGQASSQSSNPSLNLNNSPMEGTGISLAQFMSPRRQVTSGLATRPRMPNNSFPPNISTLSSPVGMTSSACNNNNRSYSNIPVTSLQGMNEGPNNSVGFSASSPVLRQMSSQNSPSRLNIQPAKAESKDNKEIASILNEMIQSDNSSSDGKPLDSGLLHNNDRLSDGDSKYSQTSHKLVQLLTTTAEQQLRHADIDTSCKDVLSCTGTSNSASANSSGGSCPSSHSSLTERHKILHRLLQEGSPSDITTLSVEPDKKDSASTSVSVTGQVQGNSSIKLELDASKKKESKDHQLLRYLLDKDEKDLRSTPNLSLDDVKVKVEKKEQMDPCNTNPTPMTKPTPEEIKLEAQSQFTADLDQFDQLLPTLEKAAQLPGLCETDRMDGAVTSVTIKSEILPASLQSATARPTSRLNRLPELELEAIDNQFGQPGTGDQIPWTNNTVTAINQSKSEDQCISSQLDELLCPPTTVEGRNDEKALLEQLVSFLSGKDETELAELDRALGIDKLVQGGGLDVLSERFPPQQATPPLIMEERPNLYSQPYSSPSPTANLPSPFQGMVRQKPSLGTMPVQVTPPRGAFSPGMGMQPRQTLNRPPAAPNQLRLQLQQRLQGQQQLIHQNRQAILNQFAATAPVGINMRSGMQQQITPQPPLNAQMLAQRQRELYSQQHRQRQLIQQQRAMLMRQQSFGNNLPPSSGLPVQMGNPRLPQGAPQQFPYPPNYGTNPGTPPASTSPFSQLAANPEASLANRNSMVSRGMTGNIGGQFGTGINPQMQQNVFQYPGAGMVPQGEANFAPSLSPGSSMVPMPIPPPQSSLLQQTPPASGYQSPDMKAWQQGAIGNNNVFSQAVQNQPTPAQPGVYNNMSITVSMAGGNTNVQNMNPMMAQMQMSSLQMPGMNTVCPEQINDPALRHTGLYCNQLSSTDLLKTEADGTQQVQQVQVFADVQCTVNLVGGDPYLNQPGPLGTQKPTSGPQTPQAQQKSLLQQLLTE

binding result [3]	Molecule	further results
	C[n+]1cc2c3c(ccc2c2ccc4cc5c(cc4c21)OCO5)OCO3 [sanguinarine]	PPRE luciferase reporter in 293T cells, 1 μM (PPARδ [1]): the H244A mutation enables PPARδ to respond to sanguinarine treatment; PPRE luciferase reporter in 293T cells, 1 μM (PPARδ [2]): sanguinarine activated the transcriptional activity of PPARδ–R248A mutation, in contrast to wild-type PPARδ
	Cc1nc(-c2ccc(C(F)(F)F)cc2)sc1C(=O)NCc1ccc(OC(C)(C)C(=O)O)cc1 [GW590735]	thermal shift assay of LBD with SRC1 peptide; GAL4 reporter at 1 μM (PPARα): thermal shift assay showed that SRC1 increased the thermal stability of sanguinarine–PPARα, compared with GW735–PPARα
binds	Biotin-PDAASKHKQLSELLRGGSG (the parent protein is in doubt) [biotinylated SRC3-3 co-activator LXXLL motif peptide]	
binds	Biotin-QEPVSPKKKENALLRYLLDKDDTKD [biotinylated SRC2-3 co-activator LXXLL motif peptide]	
binds	Biotin-SPSSHSSLTERHKILHRLLQEGSP [biotinylated SRC1-2 co-activator LXXLL motif peptide]	
